Results: patent US20120184542A1, “PYRIDO PYRIMIDINES” (priority 2011, published 2012)
Where a name gives a salt, the structure may show the parent alone. Read-outs that look alike come from different tables or passages of the source.

Experiments:
Human DYRK1B = molecular target: T1, Human DYRK1B (Homo sapiens, UniProt Q9Y463); test: DYRK1B Kinase TR-FRET (IMAP-Tb) Assay; assay type: biochemical; details: TR-FRET (IMAP-Tb); ATP 70 μM; 37° C. 60 minutes; read-out: Enzyme IC50 (μM) DYRK1B
T1 construct: purchased Invitrogen PR8350B (former PV4649)

Human DYRK1A = molecular target: T2, Human DYRK1A (Homo sapiens, UniProt Q13627); test: DYRK1A Kinase TR-FRET (IMAP-Tb) Assay; assay type: biochemical; details: TR-FRET (IMAP-Tb); ATP 70 μM; 37° C. 60 minutes; read-out: Enzyme IC50 (μM) DYRK1A
T2 construct: purchased Invitrogen PV3997
How it was run: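 Recombinant human DYRK1A phosphorylated fluorescent substrate peptide (1.0 μM) with ATP in 10 mM HEPES pH 7.0, 50 mM NaCl, 5 mM MgCl2, 1 mM DTT, 1 mM NaVO4, 0.02% BSA for 60 min at 37 °C. Phosphopeptide detected by IMAP terbium TR-FRET; IC50 reported.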

[1] = tested on: SW620 human colon cancer cells; test: SW620 Cell Viability Assay; assay type: cell-based; details: CellTiter-Glo, 4 days incubation, read-out: Cellular EC50 (μM) SW620
Method: Some cells (S—) were allowed to attach for 24 hrs, serum starved for 48 hrs, and then followed with drug treatments Test Compound Solutions were Prepared in Regular Corresponding Media Supplemented with Serum 2. […] Viability Assay: This assay was performed as follows: • Transfer 50 μL of test compound solution per well from the test compound plate onto the cell plate prepared in Step #1. • Mix the plate with treated cells by pipetting up and down three times with 200 μL multi-channel pipette. • Incubate the cells in 5% CO2 incubator @ 37° C. for 4 days. • Run the CellTiter-Glo™ Luminescent Cell Viability Assay.

T1 sequence (Q9Y463 whole entry): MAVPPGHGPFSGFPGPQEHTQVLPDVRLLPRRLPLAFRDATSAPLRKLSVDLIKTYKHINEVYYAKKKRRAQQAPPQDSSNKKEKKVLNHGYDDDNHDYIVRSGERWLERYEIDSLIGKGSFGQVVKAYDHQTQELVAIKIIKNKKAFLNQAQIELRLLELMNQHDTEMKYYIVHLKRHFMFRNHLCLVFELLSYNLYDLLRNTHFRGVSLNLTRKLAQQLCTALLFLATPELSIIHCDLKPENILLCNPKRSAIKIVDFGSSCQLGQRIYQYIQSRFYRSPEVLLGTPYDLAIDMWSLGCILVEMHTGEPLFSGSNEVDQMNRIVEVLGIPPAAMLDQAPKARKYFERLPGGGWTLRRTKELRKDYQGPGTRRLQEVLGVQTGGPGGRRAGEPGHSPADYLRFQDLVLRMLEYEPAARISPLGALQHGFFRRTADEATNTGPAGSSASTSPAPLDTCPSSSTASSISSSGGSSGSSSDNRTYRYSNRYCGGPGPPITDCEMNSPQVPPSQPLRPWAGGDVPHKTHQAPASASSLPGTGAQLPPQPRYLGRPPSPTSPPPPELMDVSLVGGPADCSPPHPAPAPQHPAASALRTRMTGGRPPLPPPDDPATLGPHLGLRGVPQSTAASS

Row | SMILES | IC50 (Human DYRK1B) | IC50 (Human DYRK1A) | EC50 ([1]; Homo sapiens, SW-620, 96 h) | EC50 ([1]; hydrochloride)
1 | COc1ncc2cc(C(=O)Nc3cc(C(=O)NCCC(N)=O)ccc3Cl)c(=O)[nH]c2n1 [Example 167, N-(5-(3-Amino-3-oxopropylcarbamoyl)-2-chlorophenyl)-2-methoxy-7-oxo-7,8-dihydropyrido[2,3-d]pyrimidine-6-carboxamide] | 0.769 µM | 0.338 µM | > 10 µM | –
2 | CSc1ncc2cc(C(=O)Nc3cc(C(=O)NC(CCN)c4ccccc4)ccc3Cl)c(=O)[nH]c2n1 (stereo not drawn) [Example 107, 2-Methylsulfanyl-7-oxo-7,8-dihydro-pyrido[2,3-d]pyrimidine-6-carboxylic acid [5-(3-amino-1-phenyl-propylcarbamoyl)-2-chloro-phenyl]-amide; hydrochloride] | 0.0105 µM | 0.00467 µM | 0.236 µM | –
3 | CSc1ncc2cc(C(=O)Nc3cc(C(=O)NCc4cccc(Cl)c4)ccc3Cl)c(=O)[nH]c2n1 [Example 74, 2-Methylsulfanyl-7-oxo-7,8-dihydro-pyrido[2,3-d]pyrimidine-6-carboxylic acid [2-chloro-5-(3-chloro-benzylcarbamoyl)-phenyl]-amide] | 0.0553 µM | 0.0256 µM | 1.07 µM | –
4 | O=C(NCc1cccc(Cl)c1)c1ccc(Cl)c(NC(=O)c2cc3cnc(N4CCNCC4)nc3[nH]c2=O)c1 [Example 119, N-(2-Chloro-5-(3-chlorobenzylcarbamoyl)phenyl)-7-oxo-2-(piperazin-1-yl)-7,8-dihydropyrido[2,3-d]pyrimidine-6-carboxamide hydrochloride] | 0.135 µM | 0.044 µM | 0.152 µM | –
5 | CN1CCN(CCCNc2ncc3cc(C(=O)Nc4cc(C(=O)NC(CN)c5ccccc5)ccc4Cl)c(=O)[nH]c3n2)CC1 (stereo not drawn) [Example 122, N-(5-(2-Amino-1-phenylethylcarbamoyl)-2-chlorophenyl)-2-(3-(4-methylpiperazin-1-yl)propylamino)-7-oxo-7,8-dihydropyrido[2,3-d]pyrimidine-6-carboxamide] | 0.009 µM | 0.012 µM | 0.359 µM | –
6 | COc1ncc2cc(C(=O)Nc3cc(C(=O)NCc4cccc(Cl)c4)ccc3Cl)c(=O)[nH]c2n1 [Example 54, 2-Methoxy-7-oxo-7,8-dihydro-pyrido[2,3-d]pyrimidine-6-carboxylic acid [2-chloro-5-(3-chloro-benzylcarbamoyl)-phenyl]-amide] | 0.0677 µM | 0.0215 µM | 1.93 µM | –
7 | N[C@H]1CC[C@@H](Nc2ncc3cc(C(=O)Nc4cc(C(=O)NCc5cccc(Cl)c5)ccc4Cl)c(=O)[nH]c3n2)CC1 [Example 118, 2-((1s,4 s)-4-Aminocyclohexylamino)-N-(2-chloro-5-(3-chlorobenzylcarbamoyl)phenyl)-7-oxo-7,8-dihydropyrido[2,3-d]pyrimidine-6-carboxamide hydrochloride] | 0.0767 µM | 0.0569 µM | 0.438 µM | –
8 | NC1CCN(c2ncc3cc(C(=O)Nc4cc(C(=O)NC(CO)c5ccccc5)ccc4Cl)c(=O)[nH]c3n2)CC1 (stereo not drawn) [Example 147, 2-(4-Aminopiperidin-1-yl)-N-(2-chloro-5-(2-hydroxy-1-phenylethylcarbamoyl)phenyl)-7-oxo-7,8-dihydropyrido[2,3-d]pyrimidine-6-carboxamide hydrochloride] | 0.483 µM | 0.194 µM | 1.44 µM | –
9 | CN1CCN(CCCNc2ncc3cc(C(=O)Nc4cc(C(=O)NC(CN)c5ccccc5)ccc4Cl)c(=O)[nH]c3n2)CC1 (stereo not drawn) [Example 123, N-(5-(2-Amino-1-phenylethylcarbamoyl)-2-chlorophenyl)-2-(3-(4-methylpiperazin-1-yl)propylamino)-7-oxo-7,8-dihydropyrido[2,3-d]pyrimidine-6-carboxamide hydrochloride] | 0.0082 µM | 0.0067 µM | – | 0.319 µM
10 | COC(=O)c1ccc(Cl)c(NC(=O)c2cc3cnc(N(CCO)CCO)nc3[nH]c2=O)c1 [Example 39, 3-({2-[Bis-(2-hydroxy-ethyl)-amino]-7-oxo-7,8-dihydro-pyrido[2,3-d]pyrimidine-6-carbonyl}-amino)-4-chloro-benzoic acid methyl ester] | 0.0248 µM | 0.0128 µM | 2.29 µM | –
11 | CN1CCN(CCOc2ncc3cc(C(=O)Nc4cc(C(=O)NCc5cccc(Cl)c5)ccc4Cl)c(=O)[nH]c3n2)CC1 [Example 87, 2-[2-(4-Methyl-piperazin-1-yl)-ethoxy]-7-oxo-7,8-dihydro-pyrido[2,3-d]pyrimidine-6-carboxylic acid [2-chloro-5-(3-chloro-benzylcarbamoyl)-phenyl]amide] | 0.0859 µM | 0.061 µM | 0.186 µM | –
12 | CC1(C)OCC(CNc2ncc3cc(C(=O)Nc4cc(C(=O)NCc5cccc(Cl)c5)ccc4Cl)c(=O)[nH]c3n2)O1 (stereo not drawn) [Example 124, N-(2-Chloro-5-(3-chlorobenzylcarbamoyl)phenyl)-2-((2,2-dimethyl-1,3-dioxolan-4-yl)methylamino)-7-oxo-7,8-dihydropyrido[2,3-d]pyrimidine-6-carboxamide] | 0.107 µM | 0.113 µM | > 10 µM | –
13 | COC(=O)c1ccc(Cl)c(NC(=O)c2cc3cnc(NCC(O)CO)nc3[nH]c2=O)c1 (stereo not drawn) [Example 38, 4-Chloro-3-{[2-(2,3-dihydroxy-propylamino)-7-oxo-7,8-dihydro-pyrido[2,3-d]pyrimidine-6-carbonyl]amino}-benzoic acid methyl ester] | 0.08 µM | 0.0385 µM | > 100 µM | –
14 | O=C(NCc1cccc(F)c1)c1ccc(Cl)c(NC(=O)c2cc3cnc(N4CCOCC4)nc3[nH]c2=O)c1 [Example 161, 2-Morpholin-4-yl-7-oxo-7,8-dihydro-pyrido[2,3-d]pyrimidine-6-carboxylic acid [2-chloro-5-(3-fluoro-benzylcarbamoyl)-phenyl]-amide] | 0.0472 µM | 0.0462 µM | > 10 µM | –
15 | O=C(NCc1cccc(Cl)c1)c1ccc(Cl)c(NC(=O)c2cc3cnc(NCCO)nc3[nH]c2=O)c1 [Example 103, N-(2-chloro-5-(3-chlorobenzylcarbamoyl)phenyl)-2-(2-hydroxyethylamino)-7-oxo-7,8-dihydropyrido[2,3-d]pyrimidine-6-carboxamide] | 0.0291 µM | 0.00974 µM | > 10 µM | –
16 | NCC(NC(=O)c1ccc(Cl)c(NC(=O)c2cc3cncnc3[nH]c2=O)c1)c1ccccc1 (stereo not drawn) [Example 151, N-(5-(2-Amino-1-phenylethylcarbamoyl)-2-chlorophenyl)-7-oxo-7,8-dihydropyrido[2,3-d]pyrimidine-6-carboxamide hydrochloride] | 0.096 µM | 0.061 µM | 4.26 µM | –
17 | O=C(NC(CO)c1ccccc1)c1ccc(Cl)c(NC(=O)c2cc3cnc(N4C[C@H]5CC[C@@H](C4)O5)nc3[nH]c2=O)c1 (stereo partly drawn) [Example 181, 2-(1R,5S)-8-Oxa-3-aza-bicyclo [3.2.1]oct-3-yl-7-oxo-7,8-dihydro-pyrido[2,3-d]pyrimidine-6-carboxylic acid [2-chloro-5-(2-hydroxy-1-phenyl-ethylcarbamoyl)-phenyl]amide] | 0.148 µM | 0.063 µM | 1.88 µM | –
18 | CC(C)(O)CNc1ncc2cc(C(=O)Nc3cc(C(=O)NCc4cccc(Cl)c4)ccc3Cl)c(=O)[nH]c2n1 [Example 127, N-(2-Chloro-5-(3-chlorobenzylcarbamoyl)phenyl)-2-(2-hydroxy-2-methylpropylamino)-7-oxo-7,8-dihydropyrido[2,3-d]pyrimidine-6-carboxamide] | 0.086 µM | 0.0223 µM | 0.165 µM | –
19 | C[C@@H](NC(=O)c1ccc(Cl)c(NC(=O)c2cc3cnc(N4CCN(C)CC4)nc3[nH]c2=O)c1)c1ccccc1 [Example 174, 2-(4-Methyl-piperazin-1-yl)-7-oxo-7,8-dihydro-pyrido[2,3-d]pyrimidine-6-carboxylic acid [2-chloro-5-((R)-1-phenyl-ethylcarbamoyl)-phenyl]-amide] | 0.207 µM | 0.0873 µM | 0.512 µM | –
20 | NCC(NC(=O)c1ccc(Cl)c(NC(=O)c2cc3cnc(N4CCC(N)CC4)nc3[nH]c2=O)c1)c1ccccc1 (stereo not drawn) [Example 138, N-(5-(2-Amino-1-phenylethylcarbamoyl)-2-chlorophenyl)-2-(4-aminopiperidin-1-yl)-7-oxo-7,8-dihydropyrido[2,3-d]pyrimidine-6-carboxamide hydrochloride] | 0.0319 µM | 0.0184 µM | 2.9 µM | –
21 | COC(=O)c1ccc(Cl)c(NC(=O)c2cc3cnc(N4CCN(C)CC4)nc3[nH]c2=O)c1 [Example 35, 4-Chloro-3-{[2-(4-methyl-piperazin-1-yl)-7-oxo-7,8-dihydro-pyrido[2,3-d]pyrimidine-6-carbonyl]amino}-benzoic acid methyl ester] | 0.031 µM | 0.0046 µM | 7.05 µM | –
22 | NC1CCN(c2ncc3cc(C(=O)Nc4cc(C(=O)NCc5cccc(Cl)c5)ccc4Cl)c(=O)[nH]c3n2)CC1 [Example 97, 2-(4-Amino-piperidin-1-yl)-7-oxo-7,8-dihydro-pyrido[2,3-d]pyrimidine-6-carboxylic acid [2-chloro-5-(3-chloro-benzylcarbamoyl)-phenyl]-amide] | 0.0819 µM | 0.0448 µM | 0.0662 µM | –
